{"source": "patent US20120184517A1", "about": "“TREATMENT OF DISEASES WITH ALTERED SMOOTH MUSCLE CONTRACTILITY” (priority 2009, published 2012)", "key": {"PKCδ [1]": {"target": "T1, PKCδ (Homo sapiens, UniProt Q05655)", "T1 sequence (Q05655 whole entry)": "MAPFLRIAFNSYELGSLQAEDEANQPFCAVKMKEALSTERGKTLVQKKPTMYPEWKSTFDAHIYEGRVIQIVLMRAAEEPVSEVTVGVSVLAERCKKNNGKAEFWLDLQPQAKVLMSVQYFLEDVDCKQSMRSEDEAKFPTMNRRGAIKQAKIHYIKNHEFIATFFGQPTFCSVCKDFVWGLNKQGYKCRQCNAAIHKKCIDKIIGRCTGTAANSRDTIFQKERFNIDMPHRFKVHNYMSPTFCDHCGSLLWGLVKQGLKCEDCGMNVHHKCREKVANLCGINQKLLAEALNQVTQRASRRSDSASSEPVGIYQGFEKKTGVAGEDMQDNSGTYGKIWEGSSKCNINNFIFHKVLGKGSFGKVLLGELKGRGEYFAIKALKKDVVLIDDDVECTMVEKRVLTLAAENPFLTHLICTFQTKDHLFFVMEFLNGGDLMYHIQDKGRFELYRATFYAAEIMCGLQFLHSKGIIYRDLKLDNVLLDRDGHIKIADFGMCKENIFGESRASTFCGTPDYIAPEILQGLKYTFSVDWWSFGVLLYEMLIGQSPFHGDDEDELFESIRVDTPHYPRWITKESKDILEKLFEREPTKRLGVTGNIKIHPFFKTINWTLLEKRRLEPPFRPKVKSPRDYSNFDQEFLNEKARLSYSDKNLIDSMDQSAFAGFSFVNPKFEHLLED", "settings": "cited from earlier work"}, "[2]": {"target": "3-phosphoinositide-dependent protein kinase-1 (PDK-1) (Homo sapiens, UniProt O15530)", "sequence (O15530 whole entry, species assumed)": "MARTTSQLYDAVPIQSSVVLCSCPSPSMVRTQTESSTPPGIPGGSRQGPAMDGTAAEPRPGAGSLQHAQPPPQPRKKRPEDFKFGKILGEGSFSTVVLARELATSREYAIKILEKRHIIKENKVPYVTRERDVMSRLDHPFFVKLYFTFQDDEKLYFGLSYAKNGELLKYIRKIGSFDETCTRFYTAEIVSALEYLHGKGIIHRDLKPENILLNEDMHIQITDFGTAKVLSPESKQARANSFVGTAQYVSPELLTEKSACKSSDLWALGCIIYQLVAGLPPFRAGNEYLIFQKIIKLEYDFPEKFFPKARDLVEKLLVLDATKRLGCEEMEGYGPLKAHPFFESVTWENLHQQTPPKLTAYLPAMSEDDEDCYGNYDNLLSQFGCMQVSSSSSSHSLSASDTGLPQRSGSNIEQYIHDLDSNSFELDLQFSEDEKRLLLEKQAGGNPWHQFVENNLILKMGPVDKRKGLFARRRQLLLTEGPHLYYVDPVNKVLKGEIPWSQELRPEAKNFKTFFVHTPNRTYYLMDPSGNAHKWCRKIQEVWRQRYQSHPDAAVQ", "settings": "20 μM; cited from earlier work"}, "[3]": {"target": "c-Jun N-terminal kinase 1 α1 (JNK1 α1) (Homo sapiens, UniProt P45983)", "sequence (P45983 1-384 isoform P45983-2, species assumed)": "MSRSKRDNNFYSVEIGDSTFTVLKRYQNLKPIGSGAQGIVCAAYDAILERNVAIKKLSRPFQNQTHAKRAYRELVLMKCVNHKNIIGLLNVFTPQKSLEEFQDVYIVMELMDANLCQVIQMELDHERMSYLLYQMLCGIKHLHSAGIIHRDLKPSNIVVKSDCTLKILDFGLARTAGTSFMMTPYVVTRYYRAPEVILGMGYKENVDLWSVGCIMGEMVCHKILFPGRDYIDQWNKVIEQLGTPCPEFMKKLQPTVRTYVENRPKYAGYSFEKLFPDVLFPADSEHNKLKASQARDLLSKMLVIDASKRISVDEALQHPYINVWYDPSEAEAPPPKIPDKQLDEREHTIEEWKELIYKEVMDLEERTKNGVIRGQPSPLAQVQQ", "settings": "20 μM; cited from earlier work"}, "[4]": {"tested_on": "murine femoral arterial rings", "format": "cell-based", "procedure": "(§1) Current was monitored with a ramp protocol; holding potential −60 mV, with ramp from −80 mV to +150 mV over 500 ms. […] Analysis was performed using tail analysis with normalization as previously described (Xia, et al., Multiple regulatory sites in large-conductance calcium-activated potassium channels. Nature, 2002. 418(6900):880-4). […] Identification of the BKCa channel was determined by conductance and inhibition by iberiotoxin and TEA. […] Murine femoral arterial rings were isolated and placed in a wire myograph. […] The figures shown are representative of 4 similar experiments. Error bars are standard error of the mean (SEM). Asterisk (*) indicates p<0.001."}, "PKCδ [5]": {"target": "T1, PKCδ", "settings": "rottlerin 20 μM, 0.1 mM ATP, phosphatidylserine; cited from earlier work"}, "[6]": {"target": "T2, BK currents in tracheal smooth muscle (Mus musculus, UniProt Q08460)", "T2 construct": "murine tracheal smooth muscle cells were acutely isolated and whole cell patch clamped; endogenous in cells; host or cells: acutely isolated murine tracheal smooth muscle cells", "T2 sequence (Q08460 whole entry)": "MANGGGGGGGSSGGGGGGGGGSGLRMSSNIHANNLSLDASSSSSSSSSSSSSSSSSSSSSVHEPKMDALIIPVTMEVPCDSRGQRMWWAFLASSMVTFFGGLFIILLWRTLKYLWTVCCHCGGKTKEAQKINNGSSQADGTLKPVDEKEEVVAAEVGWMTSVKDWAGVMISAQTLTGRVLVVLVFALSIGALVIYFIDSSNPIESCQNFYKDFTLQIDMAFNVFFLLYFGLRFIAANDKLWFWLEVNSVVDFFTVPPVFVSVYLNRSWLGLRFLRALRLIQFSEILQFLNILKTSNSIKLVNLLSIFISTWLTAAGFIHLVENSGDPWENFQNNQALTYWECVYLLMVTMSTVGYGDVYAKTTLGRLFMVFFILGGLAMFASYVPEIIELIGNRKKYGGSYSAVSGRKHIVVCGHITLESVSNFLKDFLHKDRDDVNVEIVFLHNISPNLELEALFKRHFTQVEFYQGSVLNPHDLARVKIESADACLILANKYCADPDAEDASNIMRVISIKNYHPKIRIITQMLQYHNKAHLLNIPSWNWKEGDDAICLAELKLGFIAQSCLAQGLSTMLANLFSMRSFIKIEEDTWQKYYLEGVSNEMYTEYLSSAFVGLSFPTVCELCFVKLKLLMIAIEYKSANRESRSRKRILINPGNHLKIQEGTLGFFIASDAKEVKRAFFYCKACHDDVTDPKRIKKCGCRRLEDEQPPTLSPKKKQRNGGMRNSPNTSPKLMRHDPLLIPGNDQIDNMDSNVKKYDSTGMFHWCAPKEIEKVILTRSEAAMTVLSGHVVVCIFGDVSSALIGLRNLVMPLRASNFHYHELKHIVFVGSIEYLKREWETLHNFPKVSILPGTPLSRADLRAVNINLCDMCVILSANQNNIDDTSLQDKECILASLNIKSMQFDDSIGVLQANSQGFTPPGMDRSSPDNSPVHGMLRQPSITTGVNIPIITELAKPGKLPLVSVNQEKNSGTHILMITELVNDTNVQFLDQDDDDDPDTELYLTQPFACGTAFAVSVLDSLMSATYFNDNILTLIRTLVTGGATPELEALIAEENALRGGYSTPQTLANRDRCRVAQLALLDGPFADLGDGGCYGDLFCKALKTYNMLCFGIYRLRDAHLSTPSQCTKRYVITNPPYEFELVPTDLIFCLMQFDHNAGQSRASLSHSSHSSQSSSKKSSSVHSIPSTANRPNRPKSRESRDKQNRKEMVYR", "T2 sequence (Q8CAE3 whole entry partner)": "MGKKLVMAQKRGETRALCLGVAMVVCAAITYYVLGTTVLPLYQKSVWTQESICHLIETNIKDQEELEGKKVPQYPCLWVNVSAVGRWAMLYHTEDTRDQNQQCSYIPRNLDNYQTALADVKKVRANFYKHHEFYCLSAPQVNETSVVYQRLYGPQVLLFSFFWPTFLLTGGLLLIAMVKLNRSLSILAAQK", "assay": "Whole cell patch clamp of acutely isolated tracheal smooth muscle cells", "format": "cell-based, murine", "design": "unit of the concentration uncertain", "settings": "rottlerin (1 (unit uncertain)), FIG. 11A", "text": "In this experiment, murine tracheal smooth muscle cells were acutely isolated and whole cell patch clamped as previously described (Zakharov, S. et al., (2005) J Biol Chem 280, 30882-30887).\nMurine tracheal smooth muscle cells were isolated using the following protocol. Trachea were removed, cut longitudinally, the epithelium removed (brushing with sterile cotton bud) and the cartilage removed by cutting. The isolated trachea were dissected in culture medium and cut into several pieces (1-2 mm^2). After addition of 0.5 mg/ml papain (Roche, Nutley, N.J.) and 1 mg/ml dithiothreitol, the cells were dissociated at 37° C. for 20 minutes, gently shaking, followed by the addition of 0.1 mg/ml liberase enzyme 2 (Roche, Nutley, N.J.) for 30 minutes at 37° C. (5% CO2). The suspension was then pipetted gently several times to disburse cells, the cell suspension strained via a nylon cell strainer, and the suspension was gently triturated to disburse single cells. The cell suspension was then centrifuged at 700×g for 5 minutes and the pellet resuspended in 500 μl Krebs solution. The cells were plated onto laminin-coated tissue culture dishes. BK currents were recorded using whole-cell and outside-out macropatches."}, "[7]": {"settings": "cited from earlier work"}, "BKCa channel (mSlo)": {"target": "T3, BKCa channel (mSlo) (Mus musculus, UniProt Q08460)", "T3 construct": "expressed in transfected cells", "T3 sequence (Q08460 whole entry)": "as the sequence (Q08460 whole entry) above", "assay": "Whole cell patch clamp of HEK293 cells stably transfected with mSlo", "format": "cell-based, murine", "procedure": "FIGS. 4A and 4B show representative current traces from whole cell patches with 5 mM EGTA in patch pipette. […] Voltage steps are shown at the right of each tracing; note the different maximum voltage steps +200 mV (upper) vs. +120 mV (lower). […] FIG. 4C G-V curves were constructed for indicated conditions utilizing tail analysis (Xia, et al., Multiple regulatory sites in large-conductance calcium-activated potassium channels. Nature, 2002. 418(6900):880-4). Solid lines were fitted with Boltzmann function. […] FIGS. 4D and 4E show experiments studying stable mslo HEK293 cells in whole cell configuration with a pipette solution containing 5 mM EGTA (˜0 free Ca^2+).\nCurrent in the diary plot in FIG. 5B represents maximal current in ramp protocol at +70 mV. Holding potential of ramp was −20 mV, with ramp from −30 mV to +180 mV over 500 ms. The G-V curve in FIG. 5C was generated from the tail analysis as described in FIG. 4.\nas §1"}, "BKCa channel": {"target": "BKCa channel (Homo sapiens, UniProt Q12791)", "sequence (Q12791 whole entry)": "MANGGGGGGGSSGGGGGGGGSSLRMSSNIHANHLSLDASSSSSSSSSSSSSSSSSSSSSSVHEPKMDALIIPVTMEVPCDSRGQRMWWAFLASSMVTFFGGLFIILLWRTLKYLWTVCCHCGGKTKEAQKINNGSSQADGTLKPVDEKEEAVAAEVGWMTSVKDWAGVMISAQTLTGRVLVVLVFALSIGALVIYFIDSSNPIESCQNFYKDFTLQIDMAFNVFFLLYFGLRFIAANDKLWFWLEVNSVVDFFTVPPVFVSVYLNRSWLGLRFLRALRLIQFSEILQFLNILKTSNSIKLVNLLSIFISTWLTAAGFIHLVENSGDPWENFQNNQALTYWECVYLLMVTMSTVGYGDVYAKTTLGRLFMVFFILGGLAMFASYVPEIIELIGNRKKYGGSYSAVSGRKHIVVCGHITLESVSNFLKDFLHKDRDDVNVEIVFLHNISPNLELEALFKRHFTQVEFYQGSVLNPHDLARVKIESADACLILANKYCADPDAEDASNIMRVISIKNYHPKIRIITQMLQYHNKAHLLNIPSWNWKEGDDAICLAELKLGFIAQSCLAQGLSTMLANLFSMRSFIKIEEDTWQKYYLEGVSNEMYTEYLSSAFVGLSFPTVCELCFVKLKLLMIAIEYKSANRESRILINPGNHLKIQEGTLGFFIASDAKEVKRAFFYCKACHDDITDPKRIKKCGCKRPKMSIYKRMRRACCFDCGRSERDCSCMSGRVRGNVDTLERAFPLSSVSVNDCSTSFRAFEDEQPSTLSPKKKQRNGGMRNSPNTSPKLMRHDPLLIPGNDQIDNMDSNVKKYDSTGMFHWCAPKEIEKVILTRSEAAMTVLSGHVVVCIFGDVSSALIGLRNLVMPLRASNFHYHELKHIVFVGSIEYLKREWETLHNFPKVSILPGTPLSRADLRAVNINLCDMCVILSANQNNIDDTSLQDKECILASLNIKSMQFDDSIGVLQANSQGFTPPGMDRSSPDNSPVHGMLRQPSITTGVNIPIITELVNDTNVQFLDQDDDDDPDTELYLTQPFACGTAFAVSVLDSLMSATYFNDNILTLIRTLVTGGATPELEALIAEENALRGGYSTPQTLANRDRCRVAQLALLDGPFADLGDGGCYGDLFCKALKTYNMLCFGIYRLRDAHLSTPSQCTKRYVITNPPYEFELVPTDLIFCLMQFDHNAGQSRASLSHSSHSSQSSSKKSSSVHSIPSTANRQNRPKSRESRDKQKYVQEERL", "assay": "Outside-out single channel recordings of cultured human VSMC", "format": "cell-based", "design": "Human vascular smooth muscle cells (VSMC) grown in vitro express BKCa channels; endogenous in cells; host or cells: cultured human vascular smooth muscle cells (outside-out patches)"}}, "note": "“Also recorded” adds a separate entry of the source.", "data": [{"compound": "CC(=O)c1c(O)c(C)c(O)c(Cc2c(O)c3c(c(C(=O)/C=C/c4ccccc4)c2O)OC(C)(C)C=C3)c1O", "note": "[rottlerin, 5,7-dihydroxy-2,2-dimethyl-6-(2,4,6-trihydroxy-3-methyl-5-acetylbenzyl)-8-cinnamoyl-I,2-chromene]", "values": [{"measurement": "IC50", "setting": "PKCδ [1]", "result": "3 to 6", "unit": "µM"}, {"measurement": "inhibition", "setting": "[2]", "result": 64, "unit": "%"}, {"measurement": "inhibition", "setting": "[3]", "result": 51, "unit": "%"}, {"measurement": "PE induced constriction of the vessel", "setting": "[4]; rottlerin 0.5 μM (FIG. 7D legend)", "result": "significantly inhibited"}, {"measurement": "effect on phenylephrine mediated contraction", "setting": "[4]; rottlerin 1 μM", "result": "no significant effect"}, {"measurement": "reduction of phenylephrine mediated contraction", "setting": "[4]; rottlerin 4 μM", "result": "more than 50%"}, {"measurement": "effect on PKCδ activity", "setting": "PKCδ [5]", "result": "virtually no effect"}, {"measurement": "BK currents", "setting": "[6]", "result": "significantly activated"}, {"measurement": "solubility in DMSO", "setting": "[7]; DMSO", "result": 100, "unit": "mM"}, {"measurement": "solubility in ethanol", "setting": "[7]; ethanol", "result": 2, "unit": "mM"}, {"measurement": "tail currents (deactivation)", "setting": "BKCa channel (mSlo); after exposure to rottlerin", "result": "markedly prolonged"}, {"measurement": "concentration at which channel activity was dramatically increased", "setting": "BKCa channel (mSlo); extracellular, non-Ca2+ dependent, reversible", "result": "< 100", "unit": "nM"}, {"measurement": "current after NS-1619 administration", "setting": "BKCa channel (mSlo); rottlerin 0.5 μM added after NS-1619, 0 Ca2+", "result": "incrementally increased current"}, {"measurement": "effect of intracellular dialysis on channel activity", "setting": "BKCa channel (mSlo); up to 20 μM in patch pipette, 25 minutes", "result": "only a relatively small effect; also recorded: minimal effect"}, {"measurement": "channel open probability", "setting": "BKCa channel; 0.5 μM rottlerin, outside-out patches, cultured human VSMC", "result": "significant increase"}, {"measurement": "Po and open dwell time", "setting": "BKCa channel; rottlerin 0.5 μM local perfusion, +60 mV", "result": "increasing Po and open dwell time; also recorded: significantly increased"}]}]}
